The target of data set [1] is T1, Glucagon-like peptide 1 receptor (Homo sapiens, UniProt P43220). Put plainly: Activation of GLP1R (unknown origin) CRE-bla expressed in CHO-K1 cells assessed as receptor potency incubated for 1 hrs by time resolved fluorescence resonance energy transfer immunoassay. Format: functional, cell-based.
Another data set concerns the target Albumin (Homo sapiens, UniProt P02768). Nature of the data set: Binding affinity to albumin (unknown origin) after 8 hrs by HPLC analysis. Format: ADME. Set-up: concentration or dose not given beside the values. To be noted: isolated protein.
The target of data set [2] is T1, Glucagon-like peptide 1 receptor. Nature of the data set: Binding affinity to GLP1R (unknown origin) assessed as equilibrium constant by surface plasmon resonance analysis. To be noted: filed as activator.
Data set [3] concerns Mus musculus. Put plainly: Hypoglycemic effect in intragastric starch treated mouse assessed as reduction in blood glucose level at 30 nmol/kg, sc measured at 1.5 hrs. The class given is functional, organism-based.
In data set [4] the test system is Mus musculus. Put plainly: Hypoglycemic effect in intragastric starch treated mouse assessed as decrease in glucose AUC at 30 nmol/kg, sc measured up to 24 hrs. The class given is functional, organism-based. As to conditions: time hrs <=24.
For data set [5], the target named is T1, Glucagon-like peptide 1 receptor. Nature of the data set: Binding affinity to GLP1R (unknown origin) assessed as binding rate constant by surface plasmon resonance analysis. As to conditions: filed as activator.
A short description of data set [6]: Toxicity in mouse assessed as change in body weight at 30 nmol/kg, sc measured at 1.5 hrs. Format: organism-based. As to conditions: in vivo.
Data set [7] has as its system Mus musculus. Put plainly: Hypoglycemic effect in intragastric starch treated mouse assessed as reduction in blood glucose level at 30 nmol/kg, sc measured up to 24 hrs. The class given is functional, organism-based. As to conditions: time hrs <=24.
Data set [8] addresses T1, Glucagon-like peptide 1 receptor. Put plainly: Binding affinity to GLP1R (unknown origin) assessed as dissociation rate constant by surface plasmon resonance analysis.

Activity calls are given as the source filed them. No cut-off for these calls is given here.

Chain of Albumin (P02768 whole entry): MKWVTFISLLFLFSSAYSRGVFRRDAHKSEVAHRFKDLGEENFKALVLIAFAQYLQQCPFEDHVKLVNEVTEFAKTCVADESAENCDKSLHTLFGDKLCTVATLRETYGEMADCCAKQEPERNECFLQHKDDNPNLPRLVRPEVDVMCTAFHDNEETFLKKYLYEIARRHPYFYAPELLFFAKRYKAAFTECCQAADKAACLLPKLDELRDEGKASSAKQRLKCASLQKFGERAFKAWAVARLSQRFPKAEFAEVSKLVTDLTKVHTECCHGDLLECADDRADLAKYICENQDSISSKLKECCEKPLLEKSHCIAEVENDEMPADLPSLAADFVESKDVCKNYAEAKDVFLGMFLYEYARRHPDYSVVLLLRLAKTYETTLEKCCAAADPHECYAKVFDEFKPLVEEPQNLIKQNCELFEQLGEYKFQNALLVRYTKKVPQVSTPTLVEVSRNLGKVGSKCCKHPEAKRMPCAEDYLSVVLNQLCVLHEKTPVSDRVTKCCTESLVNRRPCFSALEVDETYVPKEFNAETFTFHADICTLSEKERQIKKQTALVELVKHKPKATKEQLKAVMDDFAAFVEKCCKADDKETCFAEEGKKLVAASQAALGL
T1 sequence (P43220 whole entry): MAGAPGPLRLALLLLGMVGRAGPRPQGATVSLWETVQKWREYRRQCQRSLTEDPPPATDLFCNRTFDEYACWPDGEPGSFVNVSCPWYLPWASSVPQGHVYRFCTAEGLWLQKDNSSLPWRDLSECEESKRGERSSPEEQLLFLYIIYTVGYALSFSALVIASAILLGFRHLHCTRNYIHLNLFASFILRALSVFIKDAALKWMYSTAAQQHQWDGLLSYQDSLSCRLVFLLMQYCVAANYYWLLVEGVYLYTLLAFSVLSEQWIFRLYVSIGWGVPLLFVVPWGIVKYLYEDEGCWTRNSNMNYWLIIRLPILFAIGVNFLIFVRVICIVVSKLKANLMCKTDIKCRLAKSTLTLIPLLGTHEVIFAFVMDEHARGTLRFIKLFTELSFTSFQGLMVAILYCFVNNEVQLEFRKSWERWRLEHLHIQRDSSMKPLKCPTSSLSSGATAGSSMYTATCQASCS

In the case of `CCCCCCCCCC(=O)N[C@@H](CCC(=O)NCCCC[C@H](NC(=O)CC[C@H](NC(=O)CCCCCCCCC)C(=O)O)C(=O)NCCOCCOCC(=O)NCCOCCOCC(=O)O)C(=O)O`, the concentration for a half-maximal effect (EC50) in data set [1] stood at 0.2 nM. Moreover, at Albumin, the Activity worked out at 90.2%.
Consider `CCCCCCCCCCCC(=O)N[C@@H](CCC(=O)NCCCC[C@H](NC(=O)CC[C@H](NC(=O)CCCCCCCCCCC)C(=O)O)C(=O)NCCOCCOCC(=O)NCCOCCOCC(=O)O)C(=O)O`, for which, in data set [2], the Ke is 1.44 10^-5M. The EC50 in [1] came to 0.0101 nM. For the same compound, the result in the data set with Mus musculus [3], with Mus musculus [4] and in the data set with Mus musculus [7] was Active. In addition, the Activity is listed as 94.3% on Albumin and “Toxic” in data set [6]. For the same compound, the Ka in [5] is 5.97 10^2/Ms. Besides, in [8], the “Dissociation rate constant (koff)” value is given as 8.57 10^-3/s.
For the compound `CCCCCCCCCCCCCCCC(=O)N[C@@H](CCC(=O)NCCCC[C@H](NC(=O)CC[C@H](NC(=O)CCCCCCCCCCCCCCC)C(=O)O)C(=O)NCCOCCOCC(=O)NCCOCCOCC(=O)O)C(=O)O`, in data set [1], the EC50 was 0.0788 nM.
On to SEMAGLUTIDE [listing 1 of 2 here], for which the Activity is more than 99% on Albumin and “Toxic” in data set [6].
As for SEMAGLUTIDE [listing 2 of 2 here], the Ke in data set [2] is 1.33 10^-6M. In addition, the outcome with Mus musculus [3], with Mus musculus [4] and in the data set with Mus musculus [7] was Active. For the same compound, the Ka in data set [5] was 9.24 10^4/Ms.
For `CCCCCCCCCCCCCC(=O)N[C@@H](CCC(=O)NCCCC[C@H](NC(=O)CC[C@H](NC(=O)CCCCCCCCCCCCC)C(=O)O)C(=O)NCCOCCOCC(=O)NCCOCCOCC(=O)NCCOCCOCC(=O)O)C(=O)O`, in [1], the EC50 came to 0.0016 nM. Further, the outcome in the data set on Mus musculus [3], in the data set with Mus musculus [4] and in the data set with Mus musculus [7] was Active. The Activity result in data set [6] was “Toxic”.
For `CCCCCCCCCC(=O)N[C@@H](CCC(=O)NCCCC[C@H](NC(=O)CC[C@H](NC(=O)CCCCCCCCC)C(=O)O)C(=O)NCCOCCOCC(=O)NCCOCCOCC(=O)NCCOCCOCC(=O)O)C(=O)O`, in data set [1], the EC50 came to 0.132 nM. For the same compound, the Activity on Albumin worked out at 86%.
Turning to `CCCCCCCCCCCC(=O)N[C@@H](CCC(=O)NCCCC[C@H](NC(=O)CC[C@H](NC(=O)CCCCCCCCCCC)C(=O)O)C(=O)NCCOCCOCC(=O)NCCOCCOCC(=O)NCCOCCOCC(=O)O)C(=O)O`, the Ke in data set [2] is 7.25 10^-6M. For the same compound, the EC50 in data set [1] came to 0.0051 nM. In addition, the outcome with Mus musculus [3], with Mus musculus [4] and in the data set on Mus musculus [7] was Active. Besides, the results for the Activity (at Albumin; in data set [6]) were 91.6% and “Toxic”, respectively. In addition, in [5], the Ka is 3.26 10^3/M/s. Besides, in [8], the “Dissociation rate constant (koff)” value is listed as 2.37 10^-2/s.
`CCCCCCCCCCCCCCCC(=O)N[C@@H](CCC(=O)NCCCC[C@H](NC(=O)CC[C@H](NC(=O)CCCCCCCCCCCCCCC)C(=O)O)C(=O)NCCOCCOCC(=O)NCCOCCOCC(=O)NCCOCCOCC(=O)O)C(=O)O`: the EC50 in data set [1] is 0.0274 nM.
Regarding `CCCCCCCCCC(=O)N[C@@H](CCC(=O)NCCCC[C@H](NC(=O)CC[C@H](NC(=O)CCCCCCCCC)C(=O)O)C(=O)NCCOCCOCC(=O)O)C(=O)O`, the EC50 in data set [1] is 0.143 nM. The compound also had an Activity on Albumin of 94.5%.
Turning to `CCCCCCCCCCCC(=O)N[C@@H](CCC(=O)NCCCC[C@H](NC(=O)CC[C@H](NC(=O)CCCCCCCCCCC)C(=O)O)C(=O)NCCOCCOCC(=O)O)C(=O)O`, the Ke in data set [2] is 5.85 10^-6M. The EC50 in [1] amounted to 0.0142 nM. In addition, the outcome in the data set on Mus musculus [3], in the data set on Mus musculus [4] and in the data set with Mus musculus [7] was Active. Besides, the Activity at Albumin is more than 99%; in data set [6], “Toxic”. Besides, the Ka in data set [5] is 1.11 10^3/M/s. Also, the “Dissociation rate constant (koff)” value in [8] is 6.5 10^-3/s.
As for `CCCCCCCCCCCCCC(=O)N[C@@H](CCC(=O)NCCCC[C@H](NC(=O)CC[C@H](NC(=O)CCCCCCCCCCCCC)C(=O)O)C(=O)NCCOCCOCC(=O)O)C(=O)O`, the EC50 in [1] is 0.0096 nM. For the same compound, the outcome in the data set with Mus musculus [3] and in the data set with Mus musculus [7] was Active. The Activity result in [6] is recorded as “Toxic”.
`CCCCCCCCCCCCCCCC(=O)N[C@@H](CCC(=O)NCCCC[C@H](NC(=O)CC[C@H](NC(=O)CCCCCCCCCCCCCCC)C(=O)O)C(=O)NCCOCCOCC(=O)O)C(=O)O`: the EC50 in data set [1] was determined as 0.0723 nM.
Consider `CCCCCCCCCCCCCC(=O)N[C@@H](CCC(=O)NCCCC[C@H](NC(=O)CC[C@H](NC(=O)CCCCCCCCCCCCC)C(=O)O)C(=O)NCCOCCOCC(=O)NCCOCCOCC(=O)O)C(=O)O`, for which the EC50 in data set [1] was 0.0066 nM. Also, in the data set on Mus musculus [4], the result was Active. In addition, the Activity entry in data set [6] is “Toxic”.

The values above are taken from ChEMBL document CHEMBL4823284, “Design, synthesis and biological evaluation of double fatty chain-modified glucagon-like peptide-1 conjugates” (Bioorg Med Chem, 2021).
